Broadly, the IC50 is the concentration needed to halve the response being measured.

This is an account of results in patent US11555012B2 (Nimbus Artemis, Inc., priority 2018, dated 2023).

Each structure is given as a SMILES string. Like-named read-outs stand apart in the source and are kept apart here.

Experiment [1] addresses T1, ACL (Homo sapiens (Human), UniProt P53396). Nature of the experiment: ADP-Glo Assay. On the technique in general: ADP-Glo turns the ADP formed in a reaction into a luminescent signal.
Target sequence in this assay (P53396 other isoform, or with tags, fused parts or gaps isoform P53396-2): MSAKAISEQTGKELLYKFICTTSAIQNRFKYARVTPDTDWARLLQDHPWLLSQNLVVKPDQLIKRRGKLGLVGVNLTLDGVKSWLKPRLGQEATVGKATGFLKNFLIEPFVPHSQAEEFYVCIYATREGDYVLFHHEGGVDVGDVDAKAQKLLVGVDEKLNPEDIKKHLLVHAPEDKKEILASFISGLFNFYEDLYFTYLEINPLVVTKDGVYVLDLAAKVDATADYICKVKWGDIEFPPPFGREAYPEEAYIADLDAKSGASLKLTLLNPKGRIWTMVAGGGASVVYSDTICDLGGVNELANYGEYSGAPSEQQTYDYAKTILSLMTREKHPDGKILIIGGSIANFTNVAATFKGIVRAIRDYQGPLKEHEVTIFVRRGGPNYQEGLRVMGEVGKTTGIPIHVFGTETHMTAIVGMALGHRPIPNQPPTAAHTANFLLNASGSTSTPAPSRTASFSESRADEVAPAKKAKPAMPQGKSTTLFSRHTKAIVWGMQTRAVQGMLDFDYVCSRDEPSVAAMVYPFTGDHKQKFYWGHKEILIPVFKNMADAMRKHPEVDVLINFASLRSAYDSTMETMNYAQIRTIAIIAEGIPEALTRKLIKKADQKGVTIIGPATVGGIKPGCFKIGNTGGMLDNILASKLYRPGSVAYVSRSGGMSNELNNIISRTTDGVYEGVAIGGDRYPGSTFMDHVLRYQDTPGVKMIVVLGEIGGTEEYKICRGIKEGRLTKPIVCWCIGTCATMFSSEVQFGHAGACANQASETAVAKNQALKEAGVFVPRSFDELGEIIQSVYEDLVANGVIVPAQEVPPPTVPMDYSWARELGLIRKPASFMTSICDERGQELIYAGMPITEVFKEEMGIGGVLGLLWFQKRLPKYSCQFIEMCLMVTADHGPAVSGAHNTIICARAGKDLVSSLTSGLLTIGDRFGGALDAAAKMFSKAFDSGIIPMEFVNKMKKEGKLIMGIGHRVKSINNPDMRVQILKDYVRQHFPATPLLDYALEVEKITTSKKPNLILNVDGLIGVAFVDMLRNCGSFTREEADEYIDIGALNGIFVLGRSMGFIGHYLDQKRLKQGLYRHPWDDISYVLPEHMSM
Experiment [2] relates to HepG2 cells. The following applies: Homo sapiens, HepG2, read-out: ACLY HepG2 14C-Pyruvate Assay serum free IC50 Cholesterol (IC50) [μM].
Protocol: ACLY HepG2 ^14C-Pyruvate Incorporation Serum-Free Assay (IC50 Cholesterol and Fatty Acid Synthesis)
Compounds of the present invention were evaluated in a HepG2 ^14C-pyruvate incorporation assay. The protocol below was followed:
(§2) After 48 hours, change medium with fresh growth medium.
(§3) After 18 hours, replaced medium using 0.5 mL fresh medium (5.5 mM Glucose, without FBS, 1% PS, without Pyruvate) containing Compounds or 0.5% DMSO, incubated at 37° C., 5% CO2 for 1 hour.
(§4) Add 3 μci of [14C]-pyruvate per well to the cell samples were incubated at 37° C., 5% CO2 for 5 hours.
Medium was removed and placed into a 15 mL centrifuge tube. Add 0.5 mL of 0.1M NaOH to each well and then transfer the cell lysates into the corresponding 15 mL centrifuge tubes. 1.0 mL of EtOH and 0.17 mL 50% KOH were added to 15 mL tubes containing medium and cell suspensions, then shaking tube gently. […] Saponification 15 mL tubes containing medium and cell suspensions were incubated at 90° C. for 1 hour, then cooled to room temperature. […] Cholesterol Extraction 5 mL of petroleum ether was added per tube to extract Cholesterol, shaken vigorously, centrifuged at 1000 rpm for 5 min, and ˜5 mL of the petroleum ether layer was transferred to a new glass tube (18*180 mm). […] Acidification The samples in 15 mL tube were acidified directly with 1 mL concentrated HCl, make sure pH was below 1. […] Fatty Acids Extraction 5 mL of petroleum ether was added per tube, shaken vigorously, centrifuged at 1000 rpm for 5 min, 5 mL of the petroleum ether layer was transferred to the corresponding glass tube. […] Count The petroleum ether extracts were pooled and evaporated to dryness overnight. The residue from the petroleum ether fractions were resuspended in 500 μL of chloroform-hexane (1:1) containing 420 μg of linoleic acid as a carrier. Add 200 μL of resuspending (chloroform-hexane (1:1) containing 168 μg of linoleic acid) to 2 mL Ultima Gold™, after 30 min, count on a scintillation counter.
Experiment [3] deals with HepG2 cells. The settings on record: Homo sapiens, HepG2, read-out: ACLY HepG2 14C-Pyruvate Assay serum free IC50 FA (IC50) [μM].
Protocol: ACLY HepG2 ^14C-Pyruvate Incorporation Serum-Free Assay (IC50 Fatty
The protocol of the assay (below) was followed:
as §2, §3, §4
Medium was removed and placed into a 15 mL centrifuge tube. Add 0.5 mL of 0.1M NaOH to each well and then transfer the cell lysates into the corresponding 15 mL centrifuge tubes. 1.0 mL of EtOH and 0.17 mL 50% KOH were added to 15 mL tubes containing medium and cell suspensions, then shaking tube gently. […] Saponification 15 mL tubes containing medium and cell suspensions were incubated at 90° C. for 1 hour, then cooled to room temperature. […] Cholesterol Extraction 5 mL of petroleum ether was added per tube to extract Cholesterol, shaken vigorously, centrifuged at 1000 rpm for 5 min, and ˜5 mL of the petroleum ether layer was transferred to a new glass tube (18*180 mm). […] Acidification The samples in 15 mL tube were acidified directly with 1 mL concentrated HCl, make sure pH was below 1. […] Fatty Acids Extraction 5 mL of petroleum ether was added per tube, shaken vigorously, centrifuged at 1000 rpm for 5 min, 5 mL of the petroleum ether layer was transferred to the corresponding glass tube. […] Repeat the Step 8 10. Count The petroleum ether extracts were pooled and evaporated to dryness overnight. The residue from the petroleum ether fractions were resuspended in 500 μL of chloroform-hexane (1:1) containing 420 μg of linoleic acid as a carrier. Add 200 μL of resuspending (chloroform-hexane (1:1) containing 168 μg of linoleic acid) to 2 mL Ultima Gold™, after 30 min, count on a scintillation counter.
Experiment [4] concerns HepG2 cells. The experiment in a line: ACLY HepG2 14C-Pyruvate incorporation assay with serum (IC50 Fatty Acid). Format: cell-based. The settings on record: Homo sapiens, table title: with serum, column head: serum free, 96 well, read-out: ACLY HepG2 14C-Pyruvate Assay serum free IC50 FA 96 well (IC50). An excerpt: Example 333. ACLY HepG2 ^14C-Pyruvate Incorporation Assay (IC50 Fatty Acid)
(§1) 5. […] 6. […] 7. […] 8. […] 9. Repeat the Step 8 10.

The subject of experiment [5] is HepG2 cells. Nature of the experiment: ACLY HepG2 14C-Pyruvate incorporation assay with serum (IC50 Cholesterol). The settings on record: Homo sapiens, table title: with serum, column head: serum free, 96 well. In kind it is cell-based.
Text: The protocol below was followed:
as §1

The target in experiment [6] is T1, ACL. Nature of the experiment: ACLY-MDH Coupled Assay.
Target sequence in this assay (P53396 whole entry, species assumed): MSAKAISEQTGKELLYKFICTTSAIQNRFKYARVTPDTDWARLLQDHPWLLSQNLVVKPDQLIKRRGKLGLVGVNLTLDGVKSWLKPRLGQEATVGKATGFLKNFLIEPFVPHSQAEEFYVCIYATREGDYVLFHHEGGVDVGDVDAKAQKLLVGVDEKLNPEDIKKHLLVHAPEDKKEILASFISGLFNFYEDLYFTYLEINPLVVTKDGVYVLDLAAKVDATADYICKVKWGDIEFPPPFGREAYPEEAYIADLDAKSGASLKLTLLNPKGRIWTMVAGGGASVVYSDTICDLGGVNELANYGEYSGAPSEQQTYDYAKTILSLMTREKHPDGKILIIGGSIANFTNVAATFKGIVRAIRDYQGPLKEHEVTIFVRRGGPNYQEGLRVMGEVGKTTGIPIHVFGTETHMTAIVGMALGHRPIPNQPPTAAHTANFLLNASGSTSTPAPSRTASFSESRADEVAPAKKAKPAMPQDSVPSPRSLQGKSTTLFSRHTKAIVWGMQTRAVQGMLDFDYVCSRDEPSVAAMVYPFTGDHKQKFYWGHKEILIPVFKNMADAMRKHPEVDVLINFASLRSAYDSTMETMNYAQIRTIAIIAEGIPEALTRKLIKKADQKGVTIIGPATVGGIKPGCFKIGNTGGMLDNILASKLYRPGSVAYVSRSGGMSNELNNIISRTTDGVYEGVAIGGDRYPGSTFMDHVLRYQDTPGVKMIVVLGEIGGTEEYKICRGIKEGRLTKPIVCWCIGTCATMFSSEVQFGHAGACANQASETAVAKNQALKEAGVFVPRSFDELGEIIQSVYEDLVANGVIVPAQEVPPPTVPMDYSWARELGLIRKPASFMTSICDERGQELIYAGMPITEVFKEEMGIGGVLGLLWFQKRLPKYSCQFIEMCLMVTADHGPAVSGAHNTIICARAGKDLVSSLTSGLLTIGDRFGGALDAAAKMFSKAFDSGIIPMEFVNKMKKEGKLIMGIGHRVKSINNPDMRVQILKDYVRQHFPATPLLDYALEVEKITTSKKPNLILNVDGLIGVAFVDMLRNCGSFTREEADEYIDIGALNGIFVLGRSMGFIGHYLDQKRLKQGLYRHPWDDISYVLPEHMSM
Protocol: Compounds of the present invention were evaluated in an ACLY Coupled Assay.
The assay protocol for the Coupled Assay (below) was followed:
b) Add 1 μL cpds to 96 assay plate, Test cpd conc: 100/30/10 μM top dose, 3 folds dilution, 10+0+control (control: buffer without ACL+DMSO) points, 1000 rpm for 1 min, incubation at 25° C. for 60 min
[7] abbreviates: read-out: ACL-ADP-Glo (IC50), 3 nM ACL, 15 μM ATP, 3 μM CoA, 300 μM Citrate.
[8] abbreviates: read-out: ACL-MDH Coupled Assay (IC50), 8 nM ACL, 60 μM CoA Na2, 85 μM Citrate, 250 μM ATP, 250 μM NADH.

`O=C(O)c1ccc(-c2ccccc2)cc1NS(=O)(=O)c1cc(Cl)cc(C(F)(F)F)c1` [I-220, 3-((3-chloro-5-(trifluoromethyl)phenyl)sulfonamido)-[1,1′-biphenyl]-4-carboxylic acid]: the IC50 against ACL [1] fell in the range of 0.05 to 0.5 µM; with HepG2 cells [2], 1 to 5 µM; in the experiment on HepG2 cells [3], 1 to 10 µM; in the experiment with HepG2 cells [4], 1 to 5 µM; in the experiment with HepG2 cells [5], 1 to 5 µM; against ACL [6], 0.05 to 0.5 µM.

For the compound `CCOC(=O)c1cc(Cl)c(O)c(S(=O)(=O)Nc2cc(-c3ccccc3)c(F)cc2F)c1` [I-84, ethyl 3-chloro-5-[(2,4-difluoro-5-phenylphenyl)sulfamoyl]-4-hydroxybenzoate], the IC50 on ACL [1] (setting [7]) is less than 0.05 µM; with HepG2 cells [2], less than 1 µM; in the experiment on HepG2 cells [3], 1 to 10 µM; in the experiment with HepG2 cells [4] it was 1 to 5 µM; in the experiment with HepG2 cells [5] it was less than 1 µM; on ACL [6] (setting [8]), less than 0.05 µM.

For `O=S(=O)(Nc1cc(-c2ccccc2)c(F)cc1F)c1cc(-c2cncs2)cc(Cl)c1O` [I-123, 3-chloro-N-(4,6-difluoro-[1,1′-biphenyl]-3-yl)-2-hydroxy-5-(thiazol-5-yl)benzenesulfonamide], the IC50 is less than 0.05 µM at ACL [1] (setting [7]); less than 1 µM in the experiment with HepG2 cells [2]; 1 to 10 µM with HepG2 cells [3]; 1 to 5 µM with HepG2 cells [4]; less than 1 µM in the experiment on HepG2 cells [5]; less than 0.05 µM on ACL [6] (setting [8]).

`Cc1cc(Cl)c(O)c(S(=O)(=O)Nc2cc(-c3ccccc3)c(F)cc2F)c1` [I-157, 3-chloro-N-(4,6-difluoro-[1,1′-biphenyl]-3-yl)-2-hydroxy-5-methylbenzenesulfonamide]: the half-maximal inhibitory concentration (IC50) against ACL [1] was in the range of 0.05 to 0.5 µM; with HepG2 cells [2] it was 1 to 5 µM; in the experiment with HepG2 cells [3], 1 to 10 µM; in the experiment with HepG2 cells [4], 5 to 20 µM; with HepG2 cells [5], 1 to 5 µM; at ACL [6], 0.05 to 0.5 µM.

As to `COc1ccc(-c2ccccc2)cc1NS(=O)(=O)c1cc(Cl)cc(Br)c1O` [I-20, 3-bromo-5-chloro-2-hydroxy-N-(2-methoxy-5-phenylphenyl)benzene-1-sulfonamide], the IC50 against ACL [1] was 0.05 to 0.5 µM; in the experiment on HepG2 cells [2], 1 to 5 µM; in the experiment with HepG2 cells [3], 1 to 10 µM; against ACL [6], less than 0.05 µM.

In the case of `O=S(=O)(Nc1cc(-c2ccccc2)ccc1F)c1cc(Cl)cc(Br)c1O` [I-23, 3-bromo-5-chloro-N-(4-fluoro-[1,1′-biphenyl]-3-yl)-2-hydroxybenzenesulfonamide], the IC50 was 0.05 to 0.5 µM against ACL [1], 1 to 5 µM in the experiment with HepG2 cells [2], 1 to 10 µM in the experiment with HepG2 cells [3] and less than 0.05 µM against ACL [6].

For `O=S(=O)(Nc1cc(-c2ccccc2)c(F)cc1F)c1cc(CN2CCC2)cc(Cl)c1O` [I-272, 5-(azetidin-1-ylmethyl)-3-chloro-N-(4,6-difluoro-[1,1′-biphenyl]-3-yl)-2-hydroxybenzenesulfonamide], the IC50 at ACL [1] is 0.5 to 20 µM; with HepG2 cells [2], 1 to 5 µM; with HepG2 cells [3] it was greater than 10 µM; against ACL [6], 0.5 to 30 µM.

As to `O=C(Nc1cc(-c2ccccc2)ccc1C(=O)O)c1cc(Cl)cc(C(F)(F)F)c1` [I-349, 3-(3-chloro-5-(trifluoromethyl)benzamido)-[1,1′-biphenyl]-4-carboxylic Acid], the concentration for half-maximal inhibition (IC50) fell in the range of 0.5 to 20 µM at ACL [1], 1 to 5 µM with HepG2 cells [2], 1 to 10 µM in the experiment on HepG2 cells [3] and 0.5 to 30 µM against ACL [6].

Turning to `O=S(=O)(NC(c1ccccc1)c1ccccc1)c1cc(Cl)cc(Cl)c1O` [I-16, N-benzhydry1-3,5-dichloro-2-hydroxybenzenesulfonamide], the IC50 was 0.5 to 20 µM on ACL [1], 1 to 5 µM in the experiment on HepG2 cells [2], 1 to 10 µM in the experiment with HepG2 cells [3] and 0.5 to 30 µM at ACL [6].

As to `O=C(O)c1c(NS(=O)(=O)c2cc(Cl)cc(Cl)c2)sc2ccccc12` [I-361, 2-((3,5-dichlorophenyl)sulfonamido)benzo[b]thiophene-3-carboxylic acid], the concentration for half-maximal inhibition (IC50) is 0.5 to 20 µM against ACL [1], 1 to 5 µM with HepG2 cells [2], greater than 10 µM in the experiment with HepG2 cells [3] and 0.5 to 30 µM on ACL [6].

In the case of `O=C(O)c1ccc(-c2cccs2)cc1NS(=O)(=O)c1cc(Cl)cc(Cl)c1` [I-275, 2-((3,5-dichlorophenyl)sulfonamido)-4-(thiophen-2-yl)benzoic acid], the IC50 at ACL [1] is 0.05 to 0.5 µM; in the experiment on HepG2 cells [2], 1 to 5 µM; with HepG2 cells [3], 1 to 10 µM; against ACL [6] it was 0.05 to 0.5 µM.

As for `COC(=O)c1cc(Cl)c(O)c(S(=O)(=O)Nc2cc(-c3ccccc3)cc(F)c2F)c1` [I-111, Methyl 3-chloro-5-[(2,3-difluoro-5-phenylphenyl)sulfamoyl]-4-hydroxybenzoate], the IC50 on ACL [1] (setting [7]) is less than 0.05 µM; in the experiment with HepG2 cells [2] it was 1 to 5 µM; with HepG2 cells [3], greater than 10 µM; on ACL [6] (setting [8]) it was less than 0.05 µM.

As for `COC(=O)c1cc(Cl)c(O)c(S(=O)(=O)Nc2cc(-c3ccccc3)c(F)cc2F)c1C` [I-126, Methyl 5-chloro-3-([4,6-difluoro-[1,1-biphenyl]-3-yl]sulfamoyl)-4-hydroxy-2-methylbenzoate], the IC50 at ACL [1] (setting [7]) is less than 0.05 µM; in the experiment with HepG2 cells [2], 1 to 5 µM; with HepG2 cells [3] it was 1 to 10 µM; on ACL [6], 0.05 to 0.5 µM.

As to `O=C(Nc1cc(-c2ccccc2)ccc1C(=O)O)c1cc(Cl)cc(Cl)c1` [I-260, 3-(3,5-dichlorobenzamido)-[1,1′-biphenyl]-4-carboxylic Acid], the IC50 against ACL [1] was in the range of 0.5 to 20 µM; in the experiment on HepG2 cells [2] it was 1 to 5 µM; in the experiment on HepG2 cells [3], 1 to 10 µM; on ACL [6], 0.5 to 30 µM.

In the case of `Cc1cc(C(=O)O)c(NS(=O)(=O)c2cc(Cl)cc(C(F)(F)F)c2)cc1-c1ccccc1` [I-364, 5-((3-chloro-5-(trifluoromethyl)phenyl)sulfonamido)-2-methyl-[1,1′-biphenyl]-4-carboxylic Acid], the IC50 on ACL [1] is 0.5 to 20 µM; in the experiment on HepG2 cells [2], 1 to 5 µM; with HepG2 cells [3], 1 to 10 µM; on ACL [6], 0.5 to 30 µM.

Consider `COC(=O)c1cc(Cl)c(O)c(S(=O)(=O)Nc2cc(-c3ccccc3)ccc2F)c1` [I-47, Methyl 3-chloro-5-(N-(4-fluoro-[1,1′-biphenyl]-3-yl)sulfamoyl)-4-hydroxybenzoate], for which the IC50 is less than 0.05 µM on ACL [1] (setting [7]), 1 to 5 µM with HepG2 cells [2], 1 to 10 µM with HepG2 cells [3] and less than 0.05 µM at ACL [6] (setting [8]).

With `COc1ccc(-c2ccc(F)cc2)cc1NS(=O)(=O)c1cc(Cl)cc(Cl)c1O` [I-6, 3,5-dichloro-N-(4′-fluoro-4-methoxy-[1,1′-biphenyl]-3-yl)-2-hydroxybenzenesulfonamide], the concentration for half-maximal inhibition (IC50) on ACL [1] was 0.05 to 0.5 µM; with HepG2 cells [2] it was 1 to 5 µM; with HepG2 cells [3], greater than 10 µM; against ACL [6] it was 0.05 to 0.5 µM.

For the compound `O=S(=O)(Nc1cc(-c2ccccc2)c(F)cc1F)c1cc(Cl)cc(Cl)c1O` [I-41, 3,5-dichloro-N-(2,4-difluoro-5-phenylphenyl)-2-hydroxybenzene-1-sulfonamide], the IC50 on ACL [1] (setting [7]) was less than 0.05 µM; with HepG2 cells [2] it was 1 to 5 µM; in the experiment with HepG2 cells [3], greater than 10 µM; at ACL [6] (setting [8]), less than 0.05 µM.

For `O=S(=O)(Nc1cc(-c2ccccc2)ccc1F)c1cc(Br)ccc1O` [I-113, N5-bromo-N-(2-fluoro-5-phenylphenyl)-2-hydroxybenzene-1-sulfonamide], the IC50 on ACL [1] fell in the range of 0.5 to 20 µM; with HepG2 cells [2], 1 to 5 µM; in the experiment on HepG2 cells [3], 1 to 10 µM; against ACL [6], 0.5 to 30 µM.

On to `O=C(c1cc(Cl)c(O)c(S(=O)(=O)Nc2cc(-c3ccccc3)c(F)cc2F)c1)N1CCC1` [I-98, 5-(azetidine-1-carbonyl)-3-chloro-N-(4,6-difluoro-[1,1′-biphenyl]-3-yl)-2-hydroxybenzenesulfonamide], for which the IC50 is less than 0.05 µM at ACL [1] (setting [7]), 1 to 5 µM in the experiment with HepG2 cells [2], greater than 10 µM in the experiment on HepG2 cells [3] and less than 0.05 µM on ACL [6] (setting [8]).
